From patent publication US20210070748A1, “INHIBITORS OF BRUTONS TYROSINE KINASE” (Pharmacyclics LLC, priority 2015, published 2021) come the findings set out here.

Format in all cases: biochemical
The target in one test is T1, BTK-WT (Homo sapiens, UniProt Q06187).
T1 construct: purified from insect cells as a full-length construct containing an N-terminal 6X-His tag; His6 (N); made in house; host or cells: insect cells (baculovirus Sf21 in Method B)
As to the kind of experiment: Btk in vitro inhibitory activity (one of Method A TR-FRET, Method B electrophoretic mobility shift, Method C radiometric filter binding). The settings on record: Table 15, C compounds; read-out: IC50 BTK-WT.

The target in a further test is T2, ITK (Homo sapiens, UniProt Q08881).
T2 sequence (Q08881 1-620): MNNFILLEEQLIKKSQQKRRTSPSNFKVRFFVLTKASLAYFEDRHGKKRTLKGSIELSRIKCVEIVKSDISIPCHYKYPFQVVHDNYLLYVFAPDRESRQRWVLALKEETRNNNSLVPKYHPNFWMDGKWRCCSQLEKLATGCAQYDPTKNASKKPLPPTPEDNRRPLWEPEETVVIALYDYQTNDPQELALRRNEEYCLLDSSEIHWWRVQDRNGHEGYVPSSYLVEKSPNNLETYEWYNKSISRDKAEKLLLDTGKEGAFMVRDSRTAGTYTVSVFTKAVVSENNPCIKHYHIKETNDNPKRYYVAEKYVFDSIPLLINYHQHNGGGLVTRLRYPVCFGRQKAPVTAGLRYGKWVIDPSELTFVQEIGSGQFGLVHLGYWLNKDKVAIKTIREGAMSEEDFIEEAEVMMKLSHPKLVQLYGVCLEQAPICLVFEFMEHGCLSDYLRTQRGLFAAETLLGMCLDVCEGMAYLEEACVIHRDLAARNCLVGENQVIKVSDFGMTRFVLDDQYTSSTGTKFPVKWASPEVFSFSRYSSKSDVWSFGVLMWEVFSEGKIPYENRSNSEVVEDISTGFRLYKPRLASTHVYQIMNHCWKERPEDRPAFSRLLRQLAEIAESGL
As to the kind of experiment: Inhibition of a panel of kinases, in vitro HotSpot kinase assay: ITK. The settings on record: Table 15, C compounds; 1 μM ATP. The protocol: (§1) The degree of inhibition of a panel of kinases is determined using the in vitro HotSpot kinase assay (purified enzymes, ^33P-ATP, an appropriate substrate and 1 μM ATP).

The target in the next test is T3, TEC (Homo sapiens, UniProt P42680).
T3 sequence (P42680 1-631): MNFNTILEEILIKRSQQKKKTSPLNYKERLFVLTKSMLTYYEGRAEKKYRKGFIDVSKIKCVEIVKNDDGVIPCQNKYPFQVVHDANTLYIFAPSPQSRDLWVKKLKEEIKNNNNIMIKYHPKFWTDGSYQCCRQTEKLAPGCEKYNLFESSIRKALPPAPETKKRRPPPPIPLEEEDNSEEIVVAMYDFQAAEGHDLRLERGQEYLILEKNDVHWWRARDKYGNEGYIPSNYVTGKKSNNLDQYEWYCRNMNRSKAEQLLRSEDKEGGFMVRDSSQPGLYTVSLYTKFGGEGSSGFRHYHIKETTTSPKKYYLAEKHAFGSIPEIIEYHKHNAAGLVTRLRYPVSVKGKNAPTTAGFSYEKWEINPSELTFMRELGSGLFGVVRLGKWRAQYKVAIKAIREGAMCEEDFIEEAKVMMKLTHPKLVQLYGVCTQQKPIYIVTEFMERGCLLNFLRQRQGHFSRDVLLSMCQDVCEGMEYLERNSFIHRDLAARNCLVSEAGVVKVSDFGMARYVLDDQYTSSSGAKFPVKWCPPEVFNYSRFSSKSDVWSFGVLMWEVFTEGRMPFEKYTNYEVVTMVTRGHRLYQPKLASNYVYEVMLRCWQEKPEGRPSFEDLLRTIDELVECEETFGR
The test can be described thus: Inhibition of a panel of kinases, in vitro HotSpot kinase assay: TEC. The settings on record: Table 15, C compounds; 1 μM ATP. The procedure:
as §1

The next test concerns the target T4, TXK (Homo sapiens, UniProt P42681).
T4 sequence (P42681 1-527): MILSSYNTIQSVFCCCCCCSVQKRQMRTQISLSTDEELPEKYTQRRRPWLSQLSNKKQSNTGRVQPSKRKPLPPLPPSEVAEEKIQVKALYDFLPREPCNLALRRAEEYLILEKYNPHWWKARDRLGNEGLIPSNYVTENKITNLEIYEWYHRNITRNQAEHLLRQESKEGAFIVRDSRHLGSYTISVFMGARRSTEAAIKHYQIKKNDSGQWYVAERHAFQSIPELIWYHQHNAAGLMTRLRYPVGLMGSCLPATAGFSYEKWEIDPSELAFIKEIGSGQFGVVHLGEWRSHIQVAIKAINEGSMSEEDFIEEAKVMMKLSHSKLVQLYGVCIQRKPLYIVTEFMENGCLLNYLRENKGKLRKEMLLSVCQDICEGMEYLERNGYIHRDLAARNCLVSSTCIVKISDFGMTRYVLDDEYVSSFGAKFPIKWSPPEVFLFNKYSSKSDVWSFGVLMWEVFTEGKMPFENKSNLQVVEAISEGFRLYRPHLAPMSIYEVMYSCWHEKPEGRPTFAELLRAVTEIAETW
The test can be described thus: Inhibition of a panel of kinases, in vitro HotSpot kinase assay: TXK. The settings on record: Table 15, C compounds; 1 μM ATP. The procedure:
as §1

Each structure is given as a SMILES string. Where only a bound is given, the exact number is not on record here.

T1 sequence (Q06187 whole entry): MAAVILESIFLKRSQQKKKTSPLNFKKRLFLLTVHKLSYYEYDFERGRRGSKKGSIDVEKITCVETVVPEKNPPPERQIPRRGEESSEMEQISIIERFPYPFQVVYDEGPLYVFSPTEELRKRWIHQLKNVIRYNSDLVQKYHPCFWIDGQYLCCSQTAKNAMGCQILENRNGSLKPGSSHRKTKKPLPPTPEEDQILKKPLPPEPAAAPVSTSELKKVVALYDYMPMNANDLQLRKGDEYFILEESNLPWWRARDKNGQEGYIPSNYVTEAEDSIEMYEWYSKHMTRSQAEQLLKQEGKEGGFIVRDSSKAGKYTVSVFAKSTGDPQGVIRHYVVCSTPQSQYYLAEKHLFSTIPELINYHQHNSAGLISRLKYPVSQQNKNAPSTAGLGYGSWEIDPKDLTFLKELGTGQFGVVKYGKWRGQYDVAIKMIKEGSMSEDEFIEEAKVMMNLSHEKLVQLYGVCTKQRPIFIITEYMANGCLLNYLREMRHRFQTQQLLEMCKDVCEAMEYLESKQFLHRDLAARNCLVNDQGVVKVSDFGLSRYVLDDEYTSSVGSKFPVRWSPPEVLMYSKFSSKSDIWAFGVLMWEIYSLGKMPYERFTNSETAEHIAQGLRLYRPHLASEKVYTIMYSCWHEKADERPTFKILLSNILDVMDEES

For the compound `C=CC(=O)N1CCC[C@@H](Nc2nnc(C(N)=O)c(Nc3ccc(C4CCN(C5CCCC5)CC4)cc3)n2)C1` [Example C-60, (R)-3-(1-acryloylpiperidin-3-ylamino)-5-(4-(1-cyclopentylpiperidin-4-yl)phenylamino)-1,2,4-triazine-6-carboxamide], the IC50 at BTK-WT, at ITK, at TEC and against TXK was ≤ 0.01 µM each time.
For the compound `C=CC(=O)N1CC[C@@H](N(C)c2cnc(C(N)=O)c(Nc3ccc(C4(C)CCN(C5CCCC5)CC4)cc3)n2)C1` [Example C-67, (R)-5-((1-acryloylpyrrolidin-3-yl)(methyl)amino)-3-(4-(1-cyclopentyl-4-methylpiperidin-4-yl)phenylamino)pyrazine-2-carboxamide], the IC50 at BTK-WT was ≤ 0.01 µM; on ITK, ≤ 0.01 µM; against TEC, ≤ 0.01 µM; against TXK, > 10 µM.
As for `C=CC(=O)N1CCC[C@@H](Nc2nnc(C(N)=O)c(Nc3ccc(CN(C(=O)OCc4ccccc4)[C@@H](C)C(C)(C)C)cc3)n2)C1` [Example C-72, benzyl 4-(3-((R)-1-acryloylpiperidin-3-ylamino)-6-carbamoyl-1,2,4-triazin-5-ylamino)benzyl((S)-3,3-dimethylbutan-2-yl)carbamate], the IC50 was ≤ 0.01 µM at BTK-WT, 0.01 to 0.1 µM at ITK, ≤ 0.01 µM against TEC and 0.01 to 0.1 µM against TXK.
On to `C=CC(=O)N1CCC[C@@H](Nc2nnc(C(N)=O)c(Nc3cncc(F)c3)n2)C1` [Example C-69, (R)-3-(1-acryloylpiperidin-3-ylamino)-5-(5-fluoropyridin-3-ylamino)-1,2,4-triazine-6-carboxamide], for which the IC50 was ≤ 0.01 µM on BTK-WT, 0.1 to 1 µM at ITK, ≤ 0.01 µM at TEC and ≤ 0.01 µM against TXK.
For `C=CC(=O)N1CCC[C@@H](Nc2nnc(C(N)=O)c(Nc3ccc4ncccc4c3)n2)C1` [Example C-82, (R)-3-(1-acryloylpiperidin-3-ylamino)-5-(quinolin-6-ylamino)-1,2,4-triazine-6-carboxamide], the IC50 on BTK-WT, against ITK, against TEC and against TXK was ≤ 0.01 µM in each case.
As for `C=CC(=O)N1CC[C@@H](N(C)c2cnc(C(N)=O)c(Nc3ccc(C4(C)CCN(C5CC5)CC4)cc3)n2)C1` [Example C-65, (R)-5-((1-acryloylpyrrolidin-3-yl)(methyl)amino)-3-(4-(1-cyclopropyl-4-methylpiperidin-4-yl)phenylamino) pyrazine-2-carboxamide], the IC50 on BTK-WT, against ITK, on TEC and at TXK was ≤ 0.01 µM each time.
`C=CC(=O)N1CCC[C@@H](Nc2nnc(C(N)=O)c(Nc3ccc(I)cc3)n2)C1` [Example C-62, (R)-3-(1-acryloylpiperidin-3-ylamino)-5-(4-iodophenylamino)-1,2,4-triazine-6-carboxamide]: the IC50 at BTK-WT was ≤ 0.01 µM; against ITK, 0.01 to 0.1 µM; against TEC, ≤ 0.01 µM; against TXK, ≤ 0.01 µM.
Take `C=CC(=O)N1CCC[C@@H](Nc2nnc(C(N)=O)c(Nc3ccc(-n4cncn4)cc3)n2)C1` [Example C-83, (R)-5-(4-(1H-1,2,4-triazol-1-yl)phenylamino)-3-(1-acryloylpiperidin-3-ylamino)-1,2,4-triazine-6-carboxamide]: the IC50 on BTK-WT is ≤ 0.01 µM; on ITK, 0.01 to 0.1 µM; on TEC, ≤ 0.01 µM; against TXK it was ≤ 0.01 µM.
As to `C=CC(=O)N1CCC[C@@H](Nc2nnc(C(N)=O)c(Nc3ccc(C(C)C)c(C)c3)n2)C1` [Example C-53, (R)-3-(1-acryloylpiperidin-3-ylamino)-5-(4-isopropyl-3-methylphenylamino)-1,2,4-triazine-6-carboxamide], the IC50 at BTK-WT was ≤ 0.01 µM; at ITK it was 0.01 to 0.1 µM; against TEC, ≤ 0.01 µM; at TXK it was ≤ 0.01 µM.
As for `C=CC(=O)N1CCC[C@@H](Nc2nnc(C(N)=O)c(Nc3ccc(C)cc3)n2)C1` [Example C-54, (R)-3-(1-acryloylpiperidin-3-ylamino)-5-(p-tolylamino)-1,2,4-triazine-6-carboxamide], the IC50 is ≤ 0.01 µM on BTK-WT, 0.01 to 0.1 µM at ITK, ≤ 0.01 µM on TEC and ≤ 0.01 µM at TXK.
Take `C=CC(=O)N1CCC[C@@H](Nc2nnc(C(N)=O)c(Nc3ccc(Cn4cncn4)cc3)n2)C1` [Example C-64, (R)-5-(4-((1H-1,2,4-triazol-1-yl)methyl)phenyl-amino)-3-(1-acryloylpiperidin-3-ylamino)-1,2,4-triazine-6-carboxamide]: the half-inhibitory concentration (IC50) on BTK-WT, on ITK, on TEC and against TXK was ≤ 0.01 µM throughout.
On to `C=CC(=O)N1CCC[C@@H](Nc2nnc(C(N)=O)c(Nc3cnc4ccccc4c3)n2)C1` [Example C-70, (R)-3-(1-acryloylpiperidin-3-ylamino)-5-(quinolin-3-ylamino)-1,2,4-triazine-6-carboxamide], for which the concentration for half-maximal inhibition (IC50) on BTK-WT is ≤ 0.01 µM; against ITK, 0.01 to 0.1 µM; at TEC, ≤ 0.01 µM; at TXK, ≤ 0.01 µM.
Take `C=CC(=O)N1CCC[C@@H](Nc2nnc(C(N)=O)c(Nc3ccc4ncsc4c3)n2)C1` [Example C-63, (R)-3-(1-acryloylpiperidin-3-ylamino)-5-(benzo[d]thiazol-6-ylamino)-1,2,4-triazine-6-carboxamide]: the IC50 on BTK-WT, at ITK, against TEC and against TXK was ≤ 0.01 µM in each case.
On to `C=CC(=O)N1CCC[C@@H](Nc2nnc(C(N)=O)c(Nc3ccc(-n4nccn4)cc3)n2)C1` [Example C-81, (R)-5-(4-(2H-1,2,3-triazol-2-yl)phenylamino)-3-(1-acryloylpiperidin-3-ylamino)-1,2,4-triazine-6-carboxamide], for which the 50% inhibitory concentration (IC50) at BTK-WT was ≤ 0.01 µM; at ITK, 0.01 to 0.1 µM; at TEC, ≤ 0.01 µM; against TXK it was ≤ 0.01 µM.
Take `C=CC(=O)N1CCC[C@@H](Nc2nnc(C(N)=O)c(Nc3ccc(C(C)(C)C#N)cc3)n2)C1` [Example C-61, (R)-3-(1-acryloylpiperidin-3-ylamino)-5-(4-(2-cyanopropan-2-yl)phenylamino)-1,2,4-triazine-6-carboxamide]: the IC50 on BTK-WT, against ITK, at TEC and at TXK was ≤ 0.01 µM throughout.
Consider `C=CC(=O)N1CCC[C@@H](Nc2nnc(C(N)=O)c(Nc3ccc(-c4ncccn4)cc3)n2)C1` [Example C-52, (R)-3-(1-acryloylpiperidin-3-ylamino)-5-(4-(pyrimidin-2-yl)phenylamino)-1,2,4-triazine-6-carboxamide], for which the concentration for half-maximal inhibition (IC50) at BTK-WT was ≤ 0.01 µM; at ITK it was 0.01 to 0.1 µM; at TEC, ≤ 0.01 µM; at TXK, ≤ 0.01 µM.
